What was measured:
MOLM14 cells = assay: Cell viability of MOLM14 cells, AnnexinV/7AAD-based flow cytometry assay; set-up: species or system human
Experimental: (§1) FIG. 3. In vitro study of the CD39 protein expression in MOLM14 AML cells after cytarabine (AraC) treatment in normoxia (21%) and hypoxia (1%). (A) Western analysis of the expression of HIF-1alpha, VDAC, CD39, P2Y13, pATF2 and HSP90 (as loading control) in MOLM14 cells after normoxia (21% O2) or hypoxia (1% O2) for 24 h, 48 h or 72 h. Each lane contained 30 μg of protein. (B-C-D) MOLM14 cells were treated with AraC (2 μM, IC50 in normoxia) for 48 h either in normoxia (21% O2) or hypoxia (1% O2). Flow cytometric analyses were perform to assess cell viability (B), CD39^+ expression (C-D). The results are representative of at least three independent experiments. The ATPase activity of CD39 in MOLM14 cells after Ara-C treatment was assessed and the concentration of non-hydrolyzed extracellular ATP was determined using the ATPlite assay (PerkinElmer) (E).
(§2) FIG. 4. In vitro potentiatingeffect of ARL67156 (CD39 inhibitor) with cytarabine (AraC) in MOLM14 cell line. (A-B) MOLM14 cells were either treated or not with 2 μM Ara-C, 100 μmol/L ARL or 250 μmol/L of another CD39 inhibitor, POM-1, for 48 h. Cell viability was assessed using AnnexinV/7AAD-based flow cytometry assay. (C) U937 AML cell line was either treated or not with 0.5 μM Ara-C or 100 μmol/L ARL. The percent of viable cells was analyzed using AnnexinV/7AAD-based flow cytometry assay.
(§3) In vitro potentiating effect of CD39 inhibitor with cytarabine in MOLM14 cell line. In order to explore the effect of CD39 onto the chemoresistance to AraC in AML cell lines in vitro, we first tested the consequence of CD39 inhibition using an ecto-ATPase inhibitor ARL67156. […] High ADP and/or P2YR13 activation might be involved into this compensatory and protective mechanism.

U937 AML cell line = assay: Cell viability of U937 AML cell line, AnnexinV/7AAD-based flow cytometry assay; set-up: species or system human; conditions: U937, 0.5 μM Ara-C, 100 μmol/L ARL
Experimental: as §2, §3

CD39 [1] = assay: ATPase activity of CD39 in MOLM14 cells, non-hydrolyzed extracellular ATP by ATPlite assay; format: cell-based, human; conditions: MOLM14 after AraC, normoxic and hypoxic conditions
Experimental: as §1, with “(B-C-D) MOLM14 cells were treated with AraC (2 μM, IC50 in normoxia) for 48 h either in normoxia (21% O2) or hypoxia (1% O2).” left out, “The results are representative of at least three independent experiments.” left out
(§4) Then, we have established an AML cell line model to further study this mechanism. Using MOLM14 AML cell lines and hypoxic condition (1% versus 21% O2), we have analyzed the CD39 expression and ATP-hydrolyzing activity (FIG. 3).

CD39 [2] = assay: CD39 expression in MOLM14 cells after AraC in normoxia and hypoxia, flow cytometry; format: cell-based, human; conditions: MOLM14, AraC 2 μM, 48 h, normoxic and hypoxic conditions
Experimental: as §1, with “(B-C-D) MOLM14 cells were treated with AraC (2 μM, IC50 in normoxia) for 48 h either in normoxia (21% O2) or hypoxia (1% O2).” left out, “The results are representative of at least three independent experiments.” left out
as §4

AML blasts = assay: Flow cytometry of peripheral blood of 45 AML patients at D35 post-chemotherapy versus diagnosis; format: in vivo, human; conditions: day 35 post-AraC versus diagnosis
Experimental: (§5) FIG. 2. Validation of the increase in CD39 after cytarabine (AraC) in 9 patient-derived xenografts, 45 AML patients and 2 cell line-derived xenografts. (A) The total number of human AML cells expressing CD45, CD33 and CD44 in 9 patient-derived xenograft (PDX) was analyzed and quantified using flow cytometry in AraC-treated xenografted mice compared to PBS-treated xenografted mice in bone marrow and spleen. (B) Flow cytometric analysis of the percent of CD34^+CD38^− immature cell population was performed in human viable residual CD45^+CD33^+ AML cells from AraC-treated xenografted mice compared to PBS-treated xenografted mice in bone marrow. (C) The percent of CD39^+ cells in the bulk population and CD34^+CD38^− immature cell population of human viable residual CD45^+CD33^+ AML cells was assessed in AraC-treated xenografted mice compared to PBS-treated xenografted mice in bone marrow by flow cytometry. […]
(§6) Validation of the increase in CD39 expression in 9 patient-derived xenograft (PDX) models treated with cytarabine and in 45 AML patients at D35 compared to diagnosis. […] Then, we analyzed CD39 expression in two AML cell line-derived xenografts, which confirmed our previous results in patients and PDXs.

[3] = tested on: primary AML cells from patients; assay: NSG mice xenografted with primary AML cells from patients (PDX), flow cytometry of residual cells; format: in vivo
Experimental: FIG. 2. Validation of the increase in CD39 after cytarabine (AraC) in 9 patient-derived xenografts, 45 AML patients and 2 cell line-derived xenografts. (A) The total number of human AML cells expressing CD45, CD33 and CD44 in 9 patient-derived xenograft (PDX) was analyzed and quantified using flow cytometry in AraC-treated xenografted mice compared to PBS-treated xenografted mice in bone marrow and spleen. (B) Flow cytometric analysis of the percent of CD34^+CD38^− immature cell population was performed in human viable residual CD45^+CD33^+ AML cells from AraC-treated xenografted mice compared to PBS-treated xenografted mice in bone marrow. (C) The percent of CD39^+ cells in the bulk population and CD34^+CD38^− immature cell population of human viable residual CD45^+CD33^+ AML cells was assessed in AraC-treated xenografted mice compared to PBS-treated xenografted mice in bone marrow by flow cytometry. (D-E-F) Similarly, flow cytometric analyses of 45 AML patients in peripheral blood at D35 (post-chemotherapy) and diagnosis to assess the percentage of blasts (D), of CD34^+CD38^− immature cells (E), and of CD39^+ residual cells in both total blasts (bulk) and CD34^+CD38^− population (F). (G-H) Flow cytometry analysis of 1 resistant cell line (MOLM14) and 1 sensitive cell line (U937)-derived xenograft (CLDX) to assess the total cell tumor burden of human viable AML cells in AraC- and PBS-treated CLDX (G), the percent of CD39^+ cells (H).
Until recently, mouse models of AML have been extensively used to characterize the nature and origin of LSCs (in part by our group: Sanchez et al. 2009. Sarry et al. 2011), but less frequently used to study their chemoresistance and miminum residual disease in vivo, an approach that is crucial to improve therapeutic outcome of AML patients. Thus, we tested and established an appropriate dose and regimen for use of AraC as baseline cytotoxic in our NSG mice xenografted with primary AML cells from patients seen at diagnosis or relapse of disease. We have access to a large resource of primary samples through our Biobank of the Hematology Clinical Department of the Oncopole Hospital in Toulouse (HIMIP, INSERM-U1037, ˜150 patients newly diagnosed/year) and in collaboration with Drs Gwen Danet-Desnoyers and Martin Carroll (University of Pennsylvania, Pa., USA). Then, we analyzed human AML cells surviving after AraC treatment over time. […] CANCER DISCOVERY. 2017).
Based on this model and the current hypothesis that AraC-resistant cells are rare, replicatively dormant and well adapted to hypoxic conditions (Ishikawa et al. 2007; Raaijmakers, 2011; Wilson and Hay, 2011), we have further analyzed all of these characteristics in AraC-treated patient-xenografted mice. We have first confirmed that CD34^+CD38^− cell population is increased post-AraC chemotherapy in residual AML cells. […] Finally, we have identified a signature of 15 genes (amongst of 350 genes, including CD39/ENTPD1 and P2Y13), that are the most differentially expressed in all of the three AML patient-derived xenografts after AraC treatment as compared to control samples using our in vivo PDX models coupled to a gene expression analysis (FIG. 1a).
as §6, with “diagnosis. We first examined the effect of AraC on CD39 expression in residual viable AML cells from our NSG model xenografted with primary AML cells from 9 patients (FIG. 2a).” for “diagnosis.”

U937 = U937 (sensitive) cell line-derived xenograft (CLDX); format: in vivo, mice
Experimental: as §5, §6

[4] = AraC-treated patient-xenografted mice

SMILES	induction of cell death alone (MOLM14 cells; MOLM14, 100 μmol/L ARL, 48 h, in absence of AraC)	potentiating effect with AraC on cell death (MOLM14 cells; MOLM14, with 2 μM Ara-C, 100 μmol/L ARL or 250 μmol/L POM-1, 48 h)	potentiation of the effect of AraC in inducing cell death (U937 AML cell line)	remaining ATP (ATP-hydrolyzing activity of CD39) (CD39 [1])	IC50 (MOLM14 cells; Homo sapiens, MOLM-14, MOLM14 cells, normoxia (21% O2))	percent and expression of CD39 in residual viable cells (CD39 [2])	CD34+CD38− population and CD39 cells in residual bulk and immature populations (AML blasts)	total cell tumor burden in bone marrow and spleen ([3]; 9 PDX, AraC-treated versus PBS-treated mice)	percent of CD39 cells in bulk and immature CD34+CD38− population ([3]; 9 PDX, AraC-treated versus control mice)	CD34+CD38− population in residual AML cells ([3]; 9 PDX, post-AraC, bone marrow)	killing of cycling and quiescent cells and LSCs in vivo [3, 4]	type of cell death induced in vivo [3, 4]	peripheral engraftment and total cell tumor burden ([3]; all patients tested, PDX in NSG mice)	duration of response ([3]; variable from patient to patient, PDX in NSG mice)	total cell tumor burden in bone marrow and spleen (U937)	CD39 expression (U937; post-AraC versus vehicle)
CCN(CC)c1ncnc2c1ncn2[C@@H]1O[C@H](COP(=O)(O)OP(=O)(O)C(Br)(Br)P(=O)(O)O)[C@@H](O)[C@H]1O [ARL67156]	did not induce cell death alone	potentiatingeffect	did not potentiate the effect of AraC in inducing cell death													
Nc1ccn([C@@H]2O[C@H](CO)[C@@H](O)[C@@H]2O)c(=O)n1 [AraC, cytarabine]				significant decrease	2000 nM	increased the percent and expression of CD39	increase	significant cytoreduction	increase in percent of CD39 cells	increase	equally kills both cycling and quiescent cells as well as LSCs in vivo	ROS-/MMP-dependent apoptotic cell death	significant cytoreduction	2-7 weeks	significant cytoreduction	increases
